In ChEMBL document CHEMBL2177034, “Inhibition of hypoxia inducible factor-2 transcription: isolation of active modulators from marine sponges” (J Nat Prod, 2012):

Target: Endothelial PAS domain-containing protein 1 (Homo sapiens, UniProt Q99814)
Test: Inhibition of HIF2alpha in human 786-0 cells expressing truncated HIF1alpha assessed as reduction in luciferase activity after 24 hrs by reporter gene assay
Type: cell-based

Sequence of Endothelial PAS domain-containing protein 1 (Q99814 whole entry, the tested form may be a part): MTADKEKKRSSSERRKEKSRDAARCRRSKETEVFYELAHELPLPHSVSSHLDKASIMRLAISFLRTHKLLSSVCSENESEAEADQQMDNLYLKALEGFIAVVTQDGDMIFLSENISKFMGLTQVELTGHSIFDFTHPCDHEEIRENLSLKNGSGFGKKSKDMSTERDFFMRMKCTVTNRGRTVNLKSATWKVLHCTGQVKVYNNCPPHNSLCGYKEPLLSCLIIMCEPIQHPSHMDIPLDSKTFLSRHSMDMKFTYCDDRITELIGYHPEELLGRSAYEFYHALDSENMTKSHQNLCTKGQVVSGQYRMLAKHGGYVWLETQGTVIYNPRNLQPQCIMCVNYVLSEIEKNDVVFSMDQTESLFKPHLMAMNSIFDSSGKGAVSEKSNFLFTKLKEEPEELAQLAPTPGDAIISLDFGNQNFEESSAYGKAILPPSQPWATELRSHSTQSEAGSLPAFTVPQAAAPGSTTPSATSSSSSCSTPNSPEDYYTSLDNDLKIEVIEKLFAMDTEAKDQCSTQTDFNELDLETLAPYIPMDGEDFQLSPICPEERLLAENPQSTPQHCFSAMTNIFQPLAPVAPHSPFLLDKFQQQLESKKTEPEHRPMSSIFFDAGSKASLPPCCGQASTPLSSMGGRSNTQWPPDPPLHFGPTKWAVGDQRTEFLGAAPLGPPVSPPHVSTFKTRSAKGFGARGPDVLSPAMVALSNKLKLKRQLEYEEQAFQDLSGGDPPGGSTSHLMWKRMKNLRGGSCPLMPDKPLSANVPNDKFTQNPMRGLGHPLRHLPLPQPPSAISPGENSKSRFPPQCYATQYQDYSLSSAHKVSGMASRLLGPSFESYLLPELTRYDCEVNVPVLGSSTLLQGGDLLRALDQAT

EC50 | SMILES
1.2 µM | CC(=O)O[C@@H]1OC=C2[C@@H](OC(C)=O)C[C@H]3[C@]4(C)CC[C@H]5C(C)(C)CCC[C@]5(C)[C@H]4C[C@@H](O)[C@]3(C)[C@H]21 [HETERONEMIN]
> 100 µM | CC(=O)OC[C@]12CCCC(C)(C)[C@@H]1CC[C@]1(C)[C@@H]2C[C@H]2OC(=O)[C@H]3[C@H](C(C)=O)[C@@H](O)C[C@@H]1[C@]23C
> 100 µM | COC1=C(C)C(=O)c2cc(=O)n(C)c(C)c2C1=O [MIMOSAMYCIN]
> 100 µM | C[C@@]12CCCc3coc(c31)C(=O)c1cc3c(cc12)C(=O)C=CC3=O [XESTOQUINONE]
